Experimental data as given in patent US5104862A, “Bethalactam elastase inhibitors containing phosphorous acid derivatives at the 4-position of the 2-azetidinone” (Merck & Co., Inc., priority 1991, dated 1992).

Each compound was assayed against T1, human polymorphonuclear leukocyte elastase (human granulocyte elastase) (Homo sapiens, UniProt P08246) (assay: Enzyme assay for inhibition of human polymorphonuclear leukocyte elastase via hydrolysis of Boc-AAPAN or Boc-AAPVN). Conditions: crude extract of human PMN; 0.2 mM Boc-AAPAN or Boc-AAPVN; 0.05M TES buffer pH 7.5; read-out: kobs /I, second order rate constant for inactivation of the enzyme.
T1 construct: Crude extract of human polymorphonuclear leukocytes (PMN) containing elastase activity; endogenous in cells; host or cells: human polymorphonuclear leukocytes (crude extract)
T1 sequence (P08246 30-267): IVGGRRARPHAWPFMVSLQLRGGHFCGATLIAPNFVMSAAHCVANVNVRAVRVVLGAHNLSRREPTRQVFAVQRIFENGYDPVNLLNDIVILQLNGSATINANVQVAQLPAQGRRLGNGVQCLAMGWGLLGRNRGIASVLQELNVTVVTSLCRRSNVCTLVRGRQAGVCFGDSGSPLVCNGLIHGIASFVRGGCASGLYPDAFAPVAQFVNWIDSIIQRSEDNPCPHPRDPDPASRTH
Format: biochemical
Experimental: Enzyme Assays for the Inhibition of Human Polymorphonuclear Leukocyte Elastase Via Hydrolysis of N-t-Boc-alanyl-alanyl-prolyl-alanine-p-nitroanilide (Boc-AAPAN) or N-t-Boc-alanyl-prolyl-valine-p-nitroanilide (Boc-AAPVN) Reagent
0.05M TES (N-tris[hydroxymethyl]methyl-2-amino-ethanesulfonic acid) Buffer, pH 7.5.
0.2 mM Boc-AAPAN or Boc-AAPVN.
To prepare substrate, the solid was first dissolved in 10.0 ml DMSO. Buffer at pH 7.5 was then added to a final volume of 100 ml.
Crude extract of human polymorphonuclear leukocytes (PMN) containing elastase activity.
Inhibitors (azetidinones) to be tested dissolved in DMSO just before use.
To 1.0 ml of 0.2 mM Boc-AAPAN in a cuvette, 0.01-0.1 ml of DMSO with or without inhibitor was added. After mixing, a measurement was taken at 410 mμ to detect any spontaneous hydrolysis due to presence of test compound. 0.05 Milliliters of PMN extract was then added and the ΔOD/min at 410 mμ was measured and recorded. Beckman model 35 spectrophotometer was used.
The elastase activity in the crude PMN extract may vary from one preparation to another. A control of each new batch is run, and the volume added in the assay procedure is adjusted according to activity.

SMILES	kinact/KI [M⁻¹ s⁻¹]
C=CCP(=O)(Cc1ccc(O[C@@H]2N(C(=O)N[C@H](CCC)c3ccc(C)cc3)C(=O)C2(CC)CC)cc1)OCC (stereo partly drawn) [Example 3, (4S)-3,3-Diethyl-1-[(R)-α-n-propyl(4-methyl)-benzylaminocarbonyl]-4-[4-(allyl(ethoxyphosphinyl)methyl)phenoxy]-azetidin-2-one]	1.3e+06
CCC[C@@H](NC(=O)N1C(=O)C(CC)(CC)[C@@H]1Oc1ccc(CP(=O)(O)CCC)cc1)c1ccc(C)cc1 [Example 8, (4S)-3,3-Diethyl-1-[(R)-α-n-propyl(4-methyl)-benzylaminocarbonyl]-4-[4-(n-propyl(hydroxyphosphinyl)methyl)-phenoxy]-azetidin-2-one]	910000
CCC[C@@H](NC(=O)N1C(=O)C(CC)(CC)[C@@H]1Oc1ccc(CP(=O)(O)c2ccccc2)cc1)c1ccc(C)cc1 [Example 2]	1.2e+06

The remaining lines, values ahead:

kinact/KI [M⁻¹ s⁻¹]	SMILES
420000	CCC[C@@H](NC(=O)N1C(=O)C(CC)(CC)[C@@H]1Oc1ccc(CP(C)(=O)O)cc1)c1ccc(C)cc1 [Example 6, (4S)-3,3-Diethyl-1-[(R)-α-n-propyl(4-methyl)-benzylaminocarbonyl]-4-[4-(methyl(hydroxyphosphinyl)methyl)phenoxy]-azetidin-2-one]
740000	C=CCP(=O)(O)Cc1ccc(O[C@@H]2N(C(=O)N[C@H](CCC)c3ccc(C)cc3)C(=O)C2(CC)CC)cc1 [Example 4, (4S)-3,3-Diethyl-1-[(R)-α-n-propyl(4-methyl)-benzylaminocarbonyl]-4-[4-(allyl(hydroxyphosphinyl)methyl)phenoxy]-azetidin-2-one]
